The assay has as its system M. tuberculosis H37Rv growth inhibition. The assay can be described thus: M. tuberculosis H37Rv growth inhibitors, H37Rv strain (AID 1626). The note with it: for IC90: measured here: IC90 against H37Rv; for CC50: measured here: Vero cell cytotoxicity.

pIC50: −log10 of the molar value.

Take `CCOc1ccc(NC(=O)CN2CCN(CC(=O)Nc3ccc(Cl)c(C(F)(F)F)c3)CC2)cc1`: the pIC50 is 5.10, the IC90 worked out at 11.3 µM and the cytotoxic concentration (CC50) was 20.8 µM.

`O=C(CCNc1ccc(Cl)c(C(F)(F)F)c1)c1ccco1`: the pIC50 was 4.31 and the IC90 was over 100 µM.

Consider `O=C1CCC(=O)N1CNc1ccc(Oc2ccccc2)cc1`, for which the pIC50 was 5.59 and the IC90 is over 100 µM.

As for `Cc1ccc2c(c1)c1c3n2CCN=C3CCC1`, the pIC50 was 5.13 and the concentration for an effect of 90% (IC90) was found to be 15.8 µM.

The molecule `Cc1ccc(NC(=O)COC(=O)CC2CCCC2)cc1Cl` yielded an IC90 of over 100 µM.

Consider `O=C(Nc1ncc(Cc2ccc(C(F)(F)F)cc2)s1)c1ccc(-c2cccc([N+](=O)[O-])c2)o1`, for which the pIC50 is 4.22, the 90% effect concentration (IC90) was over 100 µM and the CC50 was over 40 µM.

With `CCC(=O)c1coc2ccc(O)cc12`, the pIC50 is 4.96 and the IC90 was over 100 µM.

As for `CCOC(=O)c1ccc(NC(=O)N2CCN(Cc3ccccc3)CC2)cc1`, the IC90 was over 100 µM.

Regarding `O=C(Nc1cc(Cl)cc(Cl)c1)N1CCCC1`, the pIC50 is 4.91, the IC90 was found to be 17.6 µM and the CC50 is over 40 µM.

`CCOc1ccc(N=c2scc(-c3ccccc3)n2CCO)cc1`: the pIC50 is 4.45 and the IC90 is over 100 µM.

`N=C(N)SCc1cn(-c2ccccc2)nc1-c1ccc(Br)cc1`: the pIC50 was 5.17, the IC90 is 9.39 µM and the CC50 is 14.6 µM.

Take `CCCOC(=O)c1ccc(NC(=O)CCOc2ccccc2)cc1`: the negative logarithm of the IC50 (pIC50) was 6.21 and the IC90 was over 100 µM.

The molecule `COc1ccc(NC(=O)c2ccc(COCC(F)(F)C(F)F)cc2)cc1` had an IC90 of over 100 µM.

On to `Oc1ccccc1CNc1cnc2ccccc2c1`, for which the pIC50 was 4.95, the IC90 was over 100 µM and the CC50 was over 40 µM.

Regarding `Cc1ccc(Nc2c(-c3ccccn3)nc3cc(C)ccn23)cc1`, the pIC50 was 5.86, the IC90 was 1.55 µM and the CC50 was 1.39 µM.

With `Cc1cccc(C)c1N1CCN(c2ccc3nnc(C(F)(F)F)n3n2)CC1`, the pIC50 was 4.93, the IC90 worked out at 61.8 µM and the CC50 is over 40 µM.

Regarding `O=S(=O)(c1ccc(Cl)c(Cl)c1)c1snnc1-c1ccccc1`, the negative logarithm of the IC50 (pIC50) was 5.57, the IC90 stood at 5.42 µM and the CC50 turned out to be 3.84 µM.

Turning to `O=C1c2ccccc2C(=O)N1CCCCN(C(=O)c1cc([N+](=O)[O-])cc([N+](=O)[O-])c1)c1ccc(Cl)cc1`, the negative-log IC50 (pIC50) was 5.91 and the IC90 stood at 1.65 µM.

As for `CCN1CCN(c2cc(-c3ccccc3)nc3cc(-c4cccc(F)c4)nn23)CC1`, the pIC50 was 5.09, the concentration for an effect of 90% (IC90) turned out to be 12.9 µM and the CC50 turned out to be 39.2 µM.

In the case of `Cc1cccc(C)c1OCC(=O)Nc1cccc(-c2nnc(-c3ccccc3)o2)c1`, the pIC50 is 4.97, the 90% effect concentration (IC90) is over 100 µM and the CC50 is over 40 µM.

As for `O=C(Nc1ccc(-c2csnn2)cc1)C(Cl)(Cl)Cl`, the pIC50 was over 6.71 and the IC90 is over 100 µM.

In the case of `N=c1n(CCN2CCCCC2)c2ccccc2n1CC(=O)c1ccc(Cl)c(Cl)c1`, the pIC50 was 5.08, the 90% effect concentration (IC90) amounted to 10.5 µM and the CC50 was 19.8 µM.

For the molecule `CCOc1ccc(NCC(=O)Nc2ccc(Cl)cc2C)cc1`, the pIC50 is 5.07 and the IC90 was over 100 µM.

For the molecule `COc1ccc(N=C2NN=C(c3c(C)[nH]c4ccccc34)CS2)cc1`, the pIC50 is 4.41, the IC90 is over 100 µM and the CC50 was 29.6 µM.

Consider `CCc1nc2sc3ccccc3c(=O)c2c(=O)n1Cc1ccc(OC)cc1`, for which the pIC50 is 5.20, the IC90 came out at 8.28 µM and the CC50 was over 40 µM.

For the molecule `CCC(=O)Nc1cccc(C(=O)/C=C/c2ccccc2)c1`, the pIC50 is 4.66, the IC90 was found to be 28.2 µM and the 50% cytotoxic concentration (CC50) stood at 10.7 µM.

`O=[N+]([O-])c1ccc(Sc2nnnn2-c2ccccc2)nc1`: the pIC50 is 5.08, the concentration for an effect of 90% (IC90) came out at 12.6 µM and the CC50 was 8.99 µM.

`COc1cccc2sc(Nc3nnc(-c4ccc(F)cc4)o3)nc12`: the pIC50 was 5.04, the 90% effect concentration (IC90) came out at 11.8 µM and the cytotoxic concentration (CC50) turned out to be 16 µM.

Consider `O=C(/C=C/c1ccc(Cl)cc1)c1cccnc1`, for which the pIC50 is 5.70, the IC90 came out at 4.7 µM and the 50% cytotoxic concentration (CC50) came to 28.5 µM.

As for `Cc1ccc(C(=O)CC(=O)c2cc(Cl)ccc2O)cc1`, the pIC50 was 5.46, the IC90 worked out at 4.67 µM and the CC50 was 20.2 µM.

As to `CCOc1ccc(-c2nnc(SCC(=O)Nc3cc(C)on3)o2)cc1`, the pIC50 is 5.79, the IC90 worked out at 1.95 µM and the half-maximal cytotoxic concentration (CC50) is over 40 µM.

Take `COc1ccc(C(C)(C)C)cc1NC(=O)COC(=O)c1cc(SC)ccc1Cl`: the pIC50 was 4.26 and the 90% effect concentration (IC90) was over 100 µM.

Take `COc1ccc(COCC(O)CN2CCC(CN3C(=O)c4cccc5cccc(c45)C3=O)CC2)cc1OC` (configuration not stated): the negative logarithm of the IC50 (pIC50) was 4.89, the IC90 is over 100 µM and the CC50 is over 40 µM.

Molecule `O=C(Nc1cc(Cl)ccc1O)c1cc2n(n1)C(C(F)(F)F)CC(c1ccc3c(c1)OCO3)N2` (configuration not stated) yielded a CC50 of over 40 µM.

On to `CSc1nc(-c2ccccc2)nc(C(Cl)Cl)n1`, for which the pIC50 is 5.86, the IC90 turned out to be 2.04 µM and the CC50 stood at 6.42 µM.

Turning to `N#CCc1ccc(NC(=O)/C=C/c2ccc([N+](=O)[O-])o2)cc1`, the pIC50 was over 6.41, the IC90 was under 0.391 µM and the CC50 was found to be 0.277 µM.

In the case of `O=C(O)c1ccc(-c2nc(-c3ccc(Cl)cc3)cs2)cc1`, the pIC50 is 4.05, the 90% effect concentration (IC90) was over 100 µM and the CC50 was over 40 µM.

Take `CCOC(=O)c1ccc(N2CSC3=C(C#N)C(c4cccs4)CC(=O)N3C2)cc1` (configuration not stated): the pIC50 was 4.52 and the IC90 is over 100 µM.

`Cc1cc(SCC(=O)OC/C(O)=C(\C#N)c2nc3ccccc3[nH]2)c(C)cc1Br`: the pIC50 was 5.04, the IC90 was 12.6 µM and the CC50 is over 40 µM.

Consider `OCCN(/C=N/c1nc(-c2ccc(Br)cc2)cs1)CCO`, for which the pIC50 was 4.50 and the IC90 was over 100 µM.

As to `CCOC(=O)c1ccc(COC(=O)c2ccc(-c3nnc(-c4ccccc4)o3)cc2)o1`, the pIC50 was 4.63, the IC90 is over 100 µM and the CC50 was over 40 µM.

As for `O=C(Nc1nc(-c2ccccn2)cs1)C1CC(=O)N(c2ccc3c(c2)OCCO3)C1` (configuration not stated), the pIC50 was 4.76, the 90% effect concentration (IC90) is over 100 µM and the CC50 was 36.7 µM.

As to `Cc1ccc(NC(=O)c2ccc(CSc3nccc(C)n3)cc2)cc1`, the pIC50 was 4.91 and the IC90 was over 100 µM.

With `Cc1cccc(-c2cc3nc(C)c(C)c(NCCCn4ccnc4)n3n2)c1`, the negative logarithm of the IC50 (pIC50) was 5.34, the IC90 is 8.03 µM and the CC50 was over 40 µM.

With `Cc1c([N+](=O)[O-])cc(C(=O)NCc2ccc(F)cc2)cc1[N+](=O)[O-]`, the pIC50 is over 6.71 and the IC90 was over 100 µM.

Regarding `COc1ccc(C2NCCc3c2[nH]c2ccccc32)cc1COc1ccc(F)cc1` (configuration not stated), the negative-log IC50 (pIC50) was 5.51, the concentration for an effect of 90% (IC90) stood at 3.39 µM and the CC50 is 12.1 µM.

With `CC(C)(C)c1ccccc1OCCOCCN1CCCCCC1`, the pIC50 is 4.24 and the IC90 is over 100 µM.

Regarding `CC1(C)C2CCC1(C)C(NC(=O)/C=C/c1ccccc1)C2` (configuration not stated), the pIC50 is over 6.71, the IC90 amounted to 18.1 µM and the CC50 is over 40 µM.

For `CCOC(=O)C1=C(c2ccccc2)N=c2s/c(=C\c3ccc(O)cc3)c(=O)n2C1c1cccs1` (configuration not stated), the negative-log IC50 (pIC50) is 5.06, the IC90 was over 100 µM and the CC50 was over 40 µM.

Take `O=C(Nc1nc(-c2cc(F)ccc2F)cs1)c1ccccn1`: the pIC50 was 5.42, the IC90 amounted to 67.8 µM and the CC50 came out at 21.2 µM.

With `c1ccc(-c2ccc3c(c2)c2c4n3CCN=C4CCC2)cc1`, the pIC50 was 4.97, the IC90 turned out to be 14.9 µM and the CC50 worked out at 24.7 µM.

For `O=C(Oc1ccc(-c2cnc3ccccc3n2)cc1)c1ccc(Cl)c([N+](=O)[O-])c1`, the pIC50 was 5.28 and the IC90 came to 23.4 µM.

For the molecule `CCOc1ccc(-c2cc(CCCC(=O)Nc3cccc(OC)c3)no2)cc1`, the pIC50 is 4.97, the IC90 was over 100 µM and the CC50 is over 40 µM.

For the molecule `CC(=O)C1=C(C)NC(SCC(=O)c2ccc(F)cc2)=C(C#N)C1c1ccco1` (configuration not stated), the pIC50 was 4.93, the IC90 was determined as 21.1 µM and the CC50 was over 40 µM.

Regarding `Cc1ccc2c(Cl)cc(Cl)c(OCC(=O)NC(C)(C)C)c2n1`, the pIC50 is 4.93, the IC90 is over 100 µM and the CC50 was over 40 µM.

Consider `CCn1ccnc1CN(C)Cc1cn(-c2ccc(C)cc2)nc1-c1ccc(F)cc1`, for which the pIC50 was 5.24, the IC90 was determined as 6.72 µM and the CC50 is over 40 µM.

In the case of `Cc1ccc(CNC(=O)c2ccc([N+](=O)[O-])o2)cc1`, the pIC50 is over 6.41, the IC90 came out at 2.89 µM and the CC50 is 8.28 µM.

`Cc1cccn2c(=O)c3cc(C(=O)NCc4ccco4)c(=N)n(CCc4ccccc4)c3nc12`: the pIC50 is 5.00, the IC90 was 21.2 µM and the CC50 was found to be 18.8 µM.

The molecule `Cc1ccc(C)c(-c2cc(C(=O)Nc3sc(C)c(C)c3C(N)=O)c3ccccc3n2)c1` registered a CC50 of over 40 µM.

For the molecule `COc1ccc(N)c2c1C(=O)c1ccccc1C2=O`, the pIC50 is 4.76, the IC90 is over 100 µM and the CC50 was over 40 µM.

For the molecule `CC1(c2ccccc2)CC(C)(C)N(C(=O)c2cc([N+](=O)[O-])cc([N+](=O)[O-])c2)c2ccccc21` (configuration not stated), the negative-log IC50 (pIC50) was 4.87, the IC90 worked out at 54.5 µM and the CC50 is over 40 µM.

In the case of `COCCN=C1Sc2nc3ccc(C)cc3cc2CN1Cc1cccs1`, the pIC50 is 4.98 and the IC90 turned out to be 13.8 µM.

On to `Cc1[nH]n(C2=NCCS2)c(=O)c1N=Nc1cccc(C(F)(F)F)c1`, for which the pIC50 is 6.41, the IC90 stood at 1.47 µM and the 50% cytotoxic concentration (CC50) stood at 9.46 µM.

(Values after PubChem BioAssay AID1626 (SRMLSC, 2009).)
